According to patent US12544391B2, “CD73 inhibitors” (ORIC Pharmaceuticals, Inc., priority 2019, dated 2026):

Assays:
CD73 = target: T1, CD73 (Homo sapiens, UniProt P21589); assay: CD73 biochemical assay, Malachite Green detection of AMP hydrolysis; conditions: CD73 320 pM, AMP 15 μM, Malachite Green readout
T1 sequence (P21589 27-549): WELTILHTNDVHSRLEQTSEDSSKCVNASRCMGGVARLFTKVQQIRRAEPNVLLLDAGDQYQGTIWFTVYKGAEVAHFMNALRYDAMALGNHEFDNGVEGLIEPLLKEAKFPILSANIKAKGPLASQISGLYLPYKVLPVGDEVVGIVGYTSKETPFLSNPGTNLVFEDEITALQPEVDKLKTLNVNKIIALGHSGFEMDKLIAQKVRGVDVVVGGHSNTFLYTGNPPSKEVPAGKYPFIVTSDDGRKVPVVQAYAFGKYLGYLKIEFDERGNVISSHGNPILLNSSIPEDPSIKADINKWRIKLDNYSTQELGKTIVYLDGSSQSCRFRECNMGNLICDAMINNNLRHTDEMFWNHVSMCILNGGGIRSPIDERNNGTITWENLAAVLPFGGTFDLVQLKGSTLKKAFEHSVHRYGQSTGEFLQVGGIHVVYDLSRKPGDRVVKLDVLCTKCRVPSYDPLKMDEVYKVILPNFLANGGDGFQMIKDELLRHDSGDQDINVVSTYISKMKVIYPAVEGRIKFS
How it was run: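 Human CD73 (0.3208 nM, i.e. 320 pM) preincubated 15 min RT with compounds (10-point ½-log titration from 100 μM, duplicates) in Tris pH 7.4, 5 mM MgCl2, Brij-35, BSA; 15 μM AMP added, 10 min RT. Phosphate read by Malachite Green absorbance; IC50 determined.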

[1] = target: T2, cell bound CD73 on Human NSCLC H1568 cells (Homo sapiens, UniProt P21589); assay: Cellular CD73 assay in H1568 cells, adenosine produced from AMP by LC-MS/MS; assay type: cell-based; conditions: RPMI/10% human plasma, 1 h with AMP/EHNA, adenosine in supernatant
T2 construct: Human NSCLC H1568 cells expressing endogenous CD73 on their surface; host or cells: H1568 (human NSCLC)
T2 sequence (P21589 27-549): T1 sequence (P21589 27-549)
Experimental: Activity of cell bound CD73 was assessed by direct measurement of adenosine produced from AMP using liquid chromatography with tandem mass-spectrometry (LC-MS/MS). Human NSCLC H1568 cells expressing endogenous CD73 on their surface were obtained from ATCC(CRL-5876) and cultured in growth medium (RPMI, 10% FBS, 1 mM L-glutamine, […]). Cells were seeded onto 96-well tissue culture plates at 10,000 cells/well and allowed to adhere for 20-24 h. 500× serial compound dilutions were prepared in DMSO in a 12-point 3-fold titration, and then diluted 1:50 into RPMI supplemented with 10% human plasma (BioIVT, cat #HMPLEDTA5) generating 10× compound dilutions. Growth medium was removed from the cells and replaced with […] of RPMI/10% human plasma. 10 mL of 10× compound dilutions were then added to the cells and incubated for 15 min at 37° C., 5% CO2. Then 10 mL of 100 mM AMP/50 mM EHNA (Sigma-Aldrich, A1752 and E114) were added to a final concentration of […]. After 1 h incubation at 37° C., 5% CO2, […] of supernatant was removed from the cells and transferred to a deep well polypropylene 96-well plate (Costar #3961) prefilled with 240 mL of organic solvent composed of methanol:acetonitrile (1:1, v/v) with 0.1% formic acid, plus 150 ng/mL of Adenosine-15N and AMP-13C as internal standards. Amount of unlabeled adenosine and AMP in each well was measured on AB Sciex API 4000 QTrap with Shimadzu LC-30AD UPLC system. Limits of adenosine and AMP detection were 10-10,000 nM and 20-10,000 nM, respectively. The IC50 values were determined based on amount of adenosine in the supernatant using four parameter non-linear regression curve fit. DMSO treated cells produced 3000-4000 nM adenosine under these conditions with negligible variability on the same day assays. Small amount of adenosine generated from AMP in the absence of cells (less than 100 nM) was used as 100% inhibition control. […]

[2] = target: T3, mouse CD73 (EMT6 breast cancer cells) (Mus musculus, UniProt Q61503); assay: Cellular CD73 assay in mouse EMT6 breast cancer cells, adenosine by LC-MS/MS; assay type: cell-based; conditions: PBS/3% BSA, adenosine in supernatant
T3 construct: mouse EMT6 breast cancer cells which express endogenous CD73 on their surface; host or cells: EMT6 (mouse breast cancer)
T3 sequence (Q61503 29-551): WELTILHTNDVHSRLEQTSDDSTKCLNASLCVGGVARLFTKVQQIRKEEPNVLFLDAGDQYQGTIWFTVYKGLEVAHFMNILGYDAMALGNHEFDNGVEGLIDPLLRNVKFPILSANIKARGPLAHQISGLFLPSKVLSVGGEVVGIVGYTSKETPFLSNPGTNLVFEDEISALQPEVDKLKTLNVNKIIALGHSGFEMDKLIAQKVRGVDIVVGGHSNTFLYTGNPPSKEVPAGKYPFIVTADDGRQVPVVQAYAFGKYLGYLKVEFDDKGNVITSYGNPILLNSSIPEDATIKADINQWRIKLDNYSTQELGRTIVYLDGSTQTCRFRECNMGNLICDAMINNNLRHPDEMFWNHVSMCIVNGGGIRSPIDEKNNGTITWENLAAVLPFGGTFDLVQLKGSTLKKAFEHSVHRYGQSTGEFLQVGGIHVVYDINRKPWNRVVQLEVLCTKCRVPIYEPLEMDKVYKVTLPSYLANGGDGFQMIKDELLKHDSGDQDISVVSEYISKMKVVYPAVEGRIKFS
Experimental: Activity of cell bound CD73 was assessed by direct measurement of adenosine produced from AMP using liquid chromatography with tandem mass-spectrometry (LC-MS/MS). Human NSCLC H1568 cells expressing endogenous CD73 on their surface were obtained from ATCC(CRL-5876) and cultured in growth medium (RPMI, 10% FBS, 1 mM L-glutamine, 100 mL penicillin-streptomycin). Cells were seeded onto 96-well tissue culture plates at 10,000 cells/well and allowed to adhere for 20-24 h. 500× serial compound dilutions were prepared in DMSO in a 12-point 3-fold titration, and then diluted 1:50 into RPMI supplemented with 10% human plasma (BioIVT, cat #HMPLEDTA5) generating 10× compound dilutions. Growth medium was removed from the cells and replaced with […] of RPMI/10% human plasma. 10 mL of 10× compound dilutions were then added to the cells and incubated for 15 min at 37° C., 5% CO2. Then 10 mL of 100 mM AMP/50 mM EHNA (Sigma-Aldrich, A1752 and E114) were added to a final concentration of 10 mM AMP/5 mM EHNA. After 1 h incubation at 37° C., 5% CO2, 80 mL of supernatant was removed from the cells and transferred to a deep well polypropylene 96-well plate (Costar #3961) prefilled with 240 mL of organic solvent composed of methanol:acetonitrile (1:1, v/v) with 0.1% formic acid, plus 150 ng/mL of Adenosine-15N and AMP-13C as internal standards. Amount of unlabeled adenosine and AMP in each well was measured on AB Sciex API 4000 QTrap with Shimadzu LC-30AD UPLC system. Limits of adenosine and AMP detection were 10-10,000 nM and 20-10,000 nM, respectively. The IC50 values were determined based on amount of adenosine in the supernatant using four parameter non-linear regression curve fit. DMSO treated cells produced 3000-4000 nM adenosine under these conditions with negligible variability on the same day assays. Small amount of adenosine generated from AMP in the absence of cells (less than 100 nM) was used as 100% inhibition control.
To determine activity of compounds on mouse CD73 mouse EMT6 breast cancer cells which express endogenous CD73 on their surface (ATCC, CRL-2755) were used. […]

| Structure (SMILES) | IC50 (CD73) [nM] | EC50 [1] [nM] | EC50 [2] [nM] |
| --- | --- | --- | --- |
| COC[C@](COCc1nn[nH]n1)(OC[C@H]1O[C@@H](c2ccc3c(NC4CCCC4)nc(Cl)nn23)[C@H](O)[C@@H]1O)P(=O)(O)O (single isomer, unassigned) [Example 9] | ≤ 0.5 | ≤ 0.5 | ≤ 0.5 |
| O=P(O)(O)[C@@](CO)(COCc1nn[nH]n1)OC[C@H]1O[C@@H](c2ccc3c(NC4CCCC4)nc(Cl)nn23)[C@H](O)[C@@H]1O [Example 15, ((S)-1-((2H-Tetrazol-5-yl)methoxy)-2-(((2R,3S,4R,5S)-5-(2-chloro-4-(cyclopentylamino)pyrrolo[2,1-f][1,2,4]triazin-7-yl)-3,4-dihydroxytetrahydrofuran-2-yl)methoxy)-3-hydroxypropan-2-yl)phosphonic acid] | ≤ 0.5 | 0.5 to 1 | 1 to 100 |
| O=P(O)(O)[C@@](CO)(COCc1nn[nH]n1)OC[C@H]1O[C@@H](c2ccc3c(NC4CCC4)nc(Cl)nn23)[C@H](O)[C@@H]1O [Example 51, ((S)-1-((2H-tetrazol-5-yl)methoxy)-2-(((2R,3S,4R,5S)-5-(2-chloro-4-(cyclobutylamino)pyrrolo[2,1-f][1,2,4]triazin-7-yl)-3,4-dihydroxytetrahydrofuran-2-yl)methoxy)-3-hydroxypropan-2-yl)phosphonic acid] | ≤ 0.5 | ≤ 0.5 | 0.5 to 1 |
| O=P(O)(O)[C@](CO)(COCc1nn[nH]n1)OC[C@H]1O[C@@H](c2ccc3c(NCC4CCC4)nc(Cl)nn23)[C@H](O)[C@@H]1O [Example 53, ((R)-1-((2H-tetrazol-5-yl)methoxy)-2-(((2R,3S,4R,5S)-5-(2-chloro-4-((cyclobutylmethyl)amino)pyrrolo[2,1-f][1,2,4]triazin-7-yl)-3,4-dihydroxytetrahydrofuran-2-yl)methoxy)-3-hydroxypropan-2-yl)phosphonic acid] | 1 to 100 | – | – |

Further lines, results first:

| IC50 (CD73) [nM] | EC50 [1] [nM] | EC50 [2] [nM] | Structure (SMILES) |
| --- | --- | --- | --- |
| 1 to 100 | – | – | O=P(O)(O)[C@](CO)(COCc1nn[nH]n1)OC[C@H]1O[C@@H](c2ccc3c(NCC4CC4)nc(Cl)nn23)[C@H](O)[C@@H]1O [Example 54, ((R)-1-((2H-tetrazol-5-yl)methoxy)-2-(((2R,3S,4R,5S)-5-(2-chloro-4-((cyclopropylmethyl)amino)pyrrolo[2,1-f][1,2,4]triazin-7-yl)-3,4-dihydroxytetrahydrofuran-2-yl)methoxy)-3-hydroxypropan-2-yl)phosphonic acid] |
| ≤ 0.5 | – | – | [2H]C([2H])([2H])OC[C@](COCc1nn[nH]n1)(OC[C@H]1O[C@@H](c2ccc3c(NC4CCCC4)nc(Cl)nn23)[C@H](O)[C@@H]1O)P(=O)(O)O [Example 55, ((S)-1-((2H-tetrazol-5-yl)methoxy)-2-(((2R,3S,4R,5S)-5-(2-chloro-4-(cyclopentylamino)pyrrolo[2,1-f][1,2,4]triazin-7-yl)-3,4-dihydroxytetrahydrofuran-2-yl)methoxy)-3-(methoxy-d3)propan-2-yl)phosphonic acid] |
| 1 to 100 | – | – | COCC(CO)(OC[C@H]1O[C@@H](c2cnn3c(NC4CCCC4)cc(Cl)nc23)[C@H](O)[C@@H]1O)P(=O)(O)O (stereo partly drawn) [Example 56, (2-(((2R,3S,4R,5S)-5-(5-chloro-7-(cyclopentylamino)pyrazolo[1,5-a]pyrimidin-3-yl)-3,4-dihydroxytetrahydrofuran-2-yl)methoxy)-1-hydroxy-3-methoxypropan-2-yl)phosphonic acid] |
| ≤ 0.5 | – | – | COCC(COCc1nn[nH]n1)(OC[C@H]1O[C@@H](c2cnn3c(NC4CCCC4)cc(Cl)nc23)[C@H](O)[C@@H]1O)P(=O)(O)O (stereo partly drawn) [Example 57, (1-((2H-tetrazol-5-yl)methoxy)-2-(((2R,3S,4R,5S)-5-(5-chloro-7-(cyclopentylamino)pyrazolo[1,5-a]pyrimidin-3-yl)-3,4-dihydroxytetrahydrofuran-2-yl)methoxy)-3-methoxypropan-2-yl)phosphonic acid] |
